US20230130066A1, “USE OF CYCLODEXTRINS IN DISEASES AND DISORDERS INVOLVING PHOSPHOLIPID DYSREGULATION” (priority 2017, published 2023)
Values joined by “and” are separate entries in the source; they are usually repeats but may differ in a detail not shown here. Equal entries are not always repeated. “Also recorded” adds a separate entry of the source. Where two headings read alike, the source gives them in different places. Marks after values point to notes of the source that are not given here.

Columns and labels:
[1] = randomized n-of-1 dose escalation study: excretion of phospholipids into urine after oral administration; assay type: in vivo, human; settings: for Excretion of phospholipids into urine, adj (expected level in healthy subjects subtracted) / Excretion of phospholipids into urine, adj per g dose / Excretion of phospholipids into urine, avg / Excretion of phospholipids into urine, single measurements: within 8 h
Description: An randomized n-of-1 dose escalation study was conducted to assess the activity of a clathrate of HP-α-CD and sodium caprate (C-10 fatty acid, capric acid, decanoic acid) in extracting phospholipids from serum into urine.

[2] = randomized blinded n-of-1 PK/PD study: FPLC of morning urine; assay type: in vivo; settings: oral intake in the evening
Excerpt: The substances compared were • HP-α-CD, • the HP-α-CD/sodium caprate clathrate • a mixture of the HP-α-CD clathrate with the same amount of sodium caprate clathrate, also known as C-10 fatty acid, capric acid, decanoic acid. • a mixture of the HP-α-CD clathrate with the oily suspension proposed by (Tuvia S, Pelled D, et al. (2014) Pharmaceutical Research 31:2010-21).
Six samples per substance were taken.
The samples were taken in the evening before bed-time and urine samples were taken
Unexpectedly, however, PA (675) and SM (650) are not reduced and neither are lyso-phospholipids (460-550).

BCa = BCa mice: tumor volume by treatment; assay type: in vivo; settings: Day*Treatment effect
[3] = cited from earlier work
BBB = settings: cited from earlier work
[4] = tested on: unesterified cholesterol (UC) storage; settings: 3-week-old Npc1-/- mice, dorsal neocortex, filipin; cited from earlier work
Caco-2 cells = settings: Caco-2 cells; cited from earlier work
MCF-7 cells = assay: Wound healing / gap closure migration assay, MCF-7; assay type: cell-based, human; settings: extrapolated from the results in FIG. 35
Description: Cells were cultured in 24-well culture plates (Cytoselect CBA-120, 0.9 mm wound healing/gap closure migration assay) for 24 h with wound healing insert in place.
Protocol: Warm up the 24-well plate (CBA-120, Cell BioLabs Inc.) with 0.9 mm CytoSelect Wound Healing Inserts at room temperature for 10 minutes. Using sterile forceps, orient the desired number of inserts in the plate wells with their “wound field” aligned in the same direction. Create a cell suspension containing 0.5-1.0×10^6 cells/ml in media containing 10% fetal bovine serum (FBS). Add 500 μL of cell suspension to each well by carefully inserting the pipette tip through the open end at the top of the insert. For optimal cell dispersion, add 250 μL of cell suspension to either side of the open ends at the top of the insert. Incubate cells in a cell culture incubator for 12-24 hours. Carefully remove the insert from the well to begin the wound healing assay. Use sterile forceps to grab and lift the insert slowly from the plate well. Slowly aspirate and discard the media from the wells. Wash wells with media to remove dead cells and debris. Finally, add media to wells to keep cells hydrated. Repeat wash if wells still have debris or unattached cells. When washing is complete, add media with FBS and/or compounds to continue cell culture and wound healing process. Agents that inhibit or stimulate cell migration can be added directly to the wells. Incubate cells in a cell culture incubator (2 hours) and then wash cells with PBS and then add fresh media without compounds. Incubate 12-24 hours before wash and fixing. Remove the fixation solution and add 400 μL of Cell Stain Solution to each well. Allow the stain to incubate with the cells for 15 minutes at room temperature. Aspirate and discard the solution. Carefully wash each stained well 3× with deionized water. Discard washes and allow cells to dry at room temperature. Cells that migrated into the wounded area or protruded from the border of the wound were visualized and photographed under an inverted microscope. Determine the surface area of the defined wound area: Total Surface Area=0.9 mm x length. Determine the surface area of the migrated cells into the wound area: Migrated Cell Surface Area=length of cell migration (mm)×2×length. Percent Closure (%)=Migrated Cell Surface Area/Total Surface Area x 100.

rats [5] = settings: cited from earlier work
[6] = cited from earlier work; remark: listed apart in the source
[7] = cited from earlier work; remark: listed apart in the source
[8] = 12 mM cyclodextrin, 5 μM A2E, blue-light irradiation or 1 d in the dark; cited from earlier work
[9] = tested on: enlarged lysosomes in fibroblasts; settings: about 6 mM α-CD vs about 8 mM HP-β-CD; cited from earlier work
HaCaT keratinocytes = settings: v. βCD; cited from earlier work
[10] = parenteral delivery; cited from earlier work
[11] = in vivo; cited from earlier work
human erythrocytes = settings: cited from earlier work
[12] = animal studies; cited from earlier work
erythrocytes = settings: cited from earlier work
transferrin endocytosis = settings: 10 mM; cited from earlier work
NPC cells = settings: cited from earlier work
[13] = LDL-receptor knockout mice, Western diet (21% milk fat) with 2.1% α-CD; cited from earlier work
rats [14] = settings: rat, in vivo, iv; cited from earlier work
rats [15] = settings: cited from earlier work; for nephrosis, 1, 2, 3, 4, or 7 daily doses s.c.: 0.100 g/kg daily
human keratinocytes = settings: cited from earlier work
APP = settings: AD mouse cells; cited from earlier work
[16] = even in the relative absence of cholesterol; cited from earlier work
[17] = target: BC resistance protein (BCRP/ABCG2) (Homo sapiens, UniProt Q9UNQ0); settings: cited from earlier work
BC resistance protein (BCRP/ABCG2), sequence (Q9UNQ0 whole entry): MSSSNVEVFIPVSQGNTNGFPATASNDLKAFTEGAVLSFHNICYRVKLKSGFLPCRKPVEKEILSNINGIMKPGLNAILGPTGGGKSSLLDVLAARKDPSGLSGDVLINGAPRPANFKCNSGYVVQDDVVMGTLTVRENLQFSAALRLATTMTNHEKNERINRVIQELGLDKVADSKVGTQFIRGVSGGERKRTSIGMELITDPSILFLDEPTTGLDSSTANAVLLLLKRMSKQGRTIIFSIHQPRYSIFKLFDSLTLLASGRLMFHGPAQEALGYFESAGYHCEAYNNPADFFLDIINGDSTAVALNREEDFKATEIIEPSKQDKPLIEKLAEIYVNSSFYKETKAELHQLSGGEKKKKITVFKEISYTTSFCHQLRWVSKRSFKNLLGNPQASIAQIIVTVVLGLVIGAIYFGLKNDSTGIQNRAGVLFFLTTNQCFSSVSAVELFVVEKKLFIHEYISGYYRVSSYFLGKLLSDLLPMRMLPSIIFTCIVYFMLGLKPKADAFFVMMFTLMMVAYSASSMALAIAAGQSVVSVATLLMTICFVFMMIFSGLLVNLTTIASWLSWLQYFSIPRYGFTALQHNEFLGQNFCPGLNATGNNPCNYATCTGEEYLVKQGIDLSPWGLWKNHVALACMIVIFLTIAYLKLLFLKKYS

[18] = tested on: H7 Lewis lung cancer cell lines; settings: three H7 Lewis lung cancer cell lines; cited from earlier work
[19] = tested on: MDA-MB-241 and ZR751 BC cells; settings: cited from earlier work
MCF7 BC cells = settings: cited from earlier work
Aβ = settings: rat hippocampal neurons infected with SFV carrying APP; cited from earlier work
[20] = tested on: H7-O Lewis lung cancer cells; settings: mice implanted with H7-O Lewis lung cancer cells; cited from earlier work
[21] = tested on: primary effusion lymphoma (PEL); settings: mice; cited from earlier work
BC = settings: in vivo; cited from earlier work
MDA-MB-231 BC cells = settings: independently of cholesterol; cited from earlier work
a-syn = target: T1, a-syn (Homo sapiens, UniProt P37840); settings: transfected cells, immunoblot; cited from earlier work
T1 construct: expressed in transfected cells

α-synuclein [22] = target: T2, α-synuclein (Homo sapiens, UniProt P37840); set-up: expressed in transfected cells; host or cells: HeLa cells; settings: HeLa cells, 20 mM, 1 hr; cited from earlier work
α-synuclein [23] = target: T2, α-synuclein; set-up: from tissue; host or cells: brain of hα-syn transgenic mice; settings: mice; cited from earlier work

For “2-hydroxypropyl-α-cyclodextrin [HP-α-CD]”, the “Excretion of phospholipids into urine, adj (expected level in healthy subjects subtracted)” value ([1]; oral dose 18 g) was 1.05 mM, the “Excretion of phospholipids into urine, adj per g dose” value (“Excretion … per g dose” for short) ([1]; oral dose 18 g) was 0.06 mM/g and the “Excretion of phospholipids into urine, avg” value (“Excretion … avg” for short) ([1]; oral dose 18 g) was 3.87 mM. For the same compound, the “Excretion of phospholipids into urine, single measurements” value (from here on “Excretion … single measurements”) ([1]; oral dose 18 g) was 3.8 mM and 3.5 mM and 4.3 mM, the “Excretion of phospholipids into urine, adj (expected level in healthy subjects subtracted)” value ([1]; oral dose 22 g) was 2.11 mM and the “Excretion … per g dose” value ([1]; oral dose 22 g) was 0.10 mM/g. The “Excretion … avg” value ([1]; oral dose 22 g) was 4.93 mM, the “Excretion … single measurements” value ([1]; oral dose 22 g) was 5.2 mM and 4.4 mM and the “Excretion of phospholipids into urine, adj (expected level in healthy subjects subtracted)” value ([1]; oral dose 26 g) was 4.05 mM. The “Excretion … per g dose” value ([1]; oral dose 26 g) was 0.16 mM/g, the “Excretion … avg” value ([1]; oral dose 26 g) was 6.87 mM and the “Excretion … single measurements” value ([1]; oral dose 26 g) was 7.2 mM and 6.3 mM and 7.1 mM. For the same compound, the “Excretion of phospholipids into urine, adj (expected level in healthy subjects subtracted)” value ([1]; oral dose 30 g) was 4.65 mM, the “Excretion … per g dose” value ([1]; oral dose 30 g) was 0.15 mM/g and the “Excretion … avg” value ([1]; oral dose 30 g) was 7.47 mM. For the same compound, the “Excretion … single measurements” value ([1]; oral dose 30 g) was 7.5 mM and 6.8 mM and 8.1 mM, the “Excretion of phospholipids into urine, adj (expected level in healthy subjects subtracted)” value ([1]; oral dose 36 g) was 5.75 mM and the “Excretion … per g dose” value ([1]; oral dose 36 g) was 0.16 mM/g. For the same compound, the “Excretion … avg” value ([1]; oral dose 36 g) was 8.57 mM, the “Excretion … single measurements” value ([1]; oral dose 36 g) was 8.2 mM and 8.8 mM and 8.7 mM and the “Excretion of phospholipids into urine, adj (expected level in healthy subjects subtracted)” value ([1]; oral dose 44 g) was 4.88 mM. The “Excretion … per g dose” value ([1]; oral dose 44 g) was 0.11 mM/g, the “Excretion … avg” value ([1]; oral dose 44 g) was 7.70 mM and the “Excretion … single measurements” value ([1]; oral dose 44 g) was 8.0 mM and 7.6 mM and 7.5 mM. For the same compound, the side effect observed ([1]; oral, only at the highest (44 g) dose) was “softening of stool”, the “recovery of HP-α-CD from morning urine (resorption)” value [2] was “not excreted” and the “Tumor Volume” value (BCa) was “effective”. The Solubility in water ([3]; Table 1) was over 500 g/L, the Solubility in water ([3]; Table 3) was ~500^a g/l and the BBB breakdown (BBB) was 2.5 mM. The “UC storage in brain cells” value [4] was “clearly reduced” and the cytotoxicity (Caco-2 cells) was “less cytotoxic than α-CD”.

For OC[C@H]1O[C@@H]2O[C@H]3[C@H](O)[C@@H](O)[C@@H](O[C@H]4[C@H](O)[C@@H](O)[C@@H](O[C@H]5[C@H](O)[C@@H](O)[C@@H](O[C@H]6[C@H](O)[C@@H](O)[C@@H](O[C@H]7[C@H](O)[C@@H](O)[C@@H](O[C@H]1[C@H](O)[C@H]2O)O[C@@H]7CO)O[C@@H]6CO)O[C@@H]5CO)O[C@@H]4CO)O[C@@H]3CO [α-CD, alpha-cyclodextrin], the “dose with the same efficacy in preventing migration of cancer cells as 2000 mg/kg/d bCD” value (MCF-7 cells) is given as 700 mg/kg/day, the Solubility in water ([3]; Table 3) is given as 130 to 145 g/L and the “nephrosis, single dose s.c.” value (rats [5]; 0.100 g/kg) is given as 0.100 no changes. The “nephrosis, single dose s.c.” value (rats [5]; 1.000 g/kg) was 1.000 changes seen, the “oral absorption in rats” value [6] was 2-3% and the “i.v. toxicity, 1 g daily” value [7] was 1 died. For the same compound, the BBB breakdown (BBB) was 1 mM, the “toxicity on BBB in vitro” value (BBB) was “more toxic” and the “protection of A2E against oxidation” value [8] was “not”. For the same compound, the reducing lysosomal storage [9] was “more effective”, the “toxicity in HaCaT cells (proliferation, caspase activity, lactose dehydrogenase)” value (HaCaT keratinocytes) was “lower toxicity” and the “excretion into the urine” value [10] was “excreted almost completely in an intact form”. For the same compound, the “tolerance in cyclosporine eye-drops” value [11] was “well tolerated”, the “hemolytic activity / tolerance of human erythrocytes” value (human erythrocytes) was “lower than that of both β-CD and HP-β-CD; also recorded: tolerate α-CD better then β-CD” and the ototoxicity [12] was “did not show ototoxicity”. For the same compound, the phospholipids released (erythrocytes; 10 mM) was 30%, the extraction of cholesterol (erythrocytes; erythrocytes) was “negligible” and the “reduction of transferrin endocytosis” value (transferrin endocytosis) was 20%. The cholesterol accumulation (NPC cells) was “can reduce cholesterol accumulation”, the “decrease of plasma PLs” value [13] was 17.5% and the “single dose i.v. LD50” value (rats [14]) was 0.788/1.008 * g/kg. For the same compound, the “nephrosis, 1, 2, 3, 4, or 7 daily doses s.c.” value (rats [15]; listed as α-cyclodextrin) was “not apparent”, the “nephrosis, 1, 2, 3, 4, or 7 daily doses s.c.” value (rats [15]) was 0.100 no nephrosis and the “deaths, daily doses s.c.” value (rats [15]; 1.000 g/kg daily, listed as α-cyclodextrin) was 1 died after 2 days. The “deaths, daily doses s.c.” value (rats [15]; 1.000 g/kg daily) was “one died after 2 days”, the “nephrosis, daily doses s.c.” value (rats [15]; 1.000 g/kg daily) was 1.000 severe and the apoptotic cell death (human keratinocytes) was “not apoptotic”.

For methyl-β-cyclodextrin [MβCD], the “toxicity on BBB in vitro” value (BBB) is given as “similar”, the “protection of A2E against oxidation” value [8] is given as “protect A2E against oxidation” and the “APPsα levels in the medium” value (APP) is given as “increased”. The “APPsβ levels in the medium” value (APP) was “did not change”, the “levels of intracellular APPsβ” value (APP) was “decrease” and the “levels of α secretase cleavage products C83” value (APP) was “increase”. For the same compound, the “LPC or FFA mediated surfactant inhibition” value [16] was “reversed”, the “decrease in activity of BC resistance protein (BCRP/ABCG2)” value [17] was 40% and the invasion activity [18] was “suppressed invasion activity”. The “spheroid migration and invasion” value [19] was “inhibited”, the endocytosis and migration (MCF7 BC cells) was “inhibited” and the “secretion of Aβ” value (Aβ) was “inhibits secretion”. The “number of lung metastases” value [20] was “reduced the number of lung metastases”, the “growth of primary effusion lymphoma (PEL)” value [21] was “inhibited growth” and the “efficacy in a mouse model of BC” value (BC) was “effective”. For the same compound, the “internalization of exosomes containing integrins” value (MDA-MB-231 BC cells) was “inhibited”, the cholesterol accumulation (NPC cells) was “most potent” and the “level of a-syn in the membrane fraction and detergent-insoluble fraction” value (a-syn) was “reduced the level of a-syn”. For the same compound, the “co-location of α-synuclein with the cell membrane” value (α-synuclein [22]) was “dramatically reduced” and the “accumulation of α-synuclein in neuronal cell body and synapses” value (α-synuclein [23]) was “reduced accumulation”.
